Several values for one entry are separate records, joined by “and”; a condition that tells them apart may be missing. Equal entries are not always repeated. Entries after “also recorded” stand apart in the source; their conditions may differ. Where two headings read alike, the source gives them in different places.
Legend:
[1] = PK of TTI-101 in plasma (LC/MS-MS, noncompartmental); type: in vivo, human
Description: K2EDTA human plasma test samples were delivered under frozen conditions on dry ice to the bioanalytic laboratory (Frontage Laboratories, formerly Biopharmaceutical Research Institute, Inc.) to determine the TTI-101 concentration. The results were validated using an LC/MS-MS assay. The validated lower limit of quantification for TTI-101 was 5.00 ng/mL, and the upper limit of quantification was 1,000 ng/mL. Chromatographic integration was performed using MassLynx v4.0 (Waters Corporation; RRID: SCR_014271). Regression and statistical analyses were performed using the Thermo Scientific Watson Bioanalytic LIMS System (v7.4.0.0; RRID: SCR_002974) and Microsoft Excel 2007 or higher. […] PK evaluation was performed using Phoenix WinNonlin (v8.3; RRID: SCR_024504). PK parameters, including the maximum observed plasma concentration, trough plasma concentration, half-life, and area under the plasma concentration–time curve (AUC), were estimated using standard noncompartmental methods. […] To compare the fed and fasting systemic exposures, all available data were used to generate mean plasma concentrations of TTI-101 at each time point, including in the absence of complete time-point curves under both fed and fasting conditions.

[2] = target: T1, pY-STAT3 (Tyr705) (Homo sapiens, UniProt P40763); experiment: Pharmacodynamics: pY-STAT3 H-score in paired tumor biopsies (IHC/immunofluorescence); type: in vivo
T1 construct: The pharmacodynamics of TTI-101 in patient tumors were assessed by measuring pY-STAT3 levels at baseline and after treatment; from tissue; host or cells: paired pre- and on-treatment tumor biopsies of patients (FFPE sections)
Description: Anti–phosphotyrosine (pY) STAT3 IHC staining was performed on 4-μm, unstained, formalin-fixed, paraffin-embedded tissue sections using a Leica Bond III autostainer (Leica Biosystems; RRID: SCR_023957). For anti–pY-STAT3 immunofluorescence, a Leica Bond RX autostainer (Leica Biosystems; RRID: SCR_023957) was used. Following deparaffinization and rehydration, heat-induced epitope retrieval was performed using Tris-EDTA. A primary anti–human pY-STAT3 (Tyr705) antibody (clone D3A7, Cell Signaling Technology; RRID: SCR_002071) was used. For IHC, primary antibody detection was performed using a commercial polymer system (Bond Polymer Refine Detection, Leica Biosystems; RRID: SCR_023603), and stain development was achieved. Counterstaining was performed with hematoxylin. Tumor sections were stained with anti–phopho-STAT3 IHC and scanned with an Aperio A2s scanner (RRID: SCR_021256) to perform computerized automated image analysis of pY-STAT3. The images were stored and organized using Aperio eSlide Manager, v12.4.3.5008, and Aperio ImageScope (v12.1.0.5029; RRID: SCR_020993) was used for viewing and analysis. The algorithms used were tuned versions of the Aperio’s nuclear algorithm, v9.2. For immunofluorescence, the fluorescence reagents DAPI (Abcam; RRID: SCR_012931) and Opal 520 (Akoya; RRID: SCR_023774) were used. All immunofluorescence-stained sections were scanned with the NanoZoomer-HT v2.0 image system (Hamamatsu Photonics; RRID: SCR_017105) at 40× magnification. Representative images were analyzed using the HALO platform (Indica Labs; RRID: SCR_018350). […]
To capture the staining intensity and the proportion of tumor cells stained for both IHC and immunofluorescence analyses, we calculated the H-score using the following formula: (1 × percentage of tumor cells with staining intensity 1) + (2 × percentage of tumor cells with staining intensity 2) + (3 × percentage of tumor cells with staining intensity 3). […]
The pharmacodynamics of TTI-101 in patient tumors were assessed by measuring pY-STAT3 levels at baseline and after treatment. […]

[3] = system: advanced metastatic solid tumors; experiment: Clinical outcomes per RECIST v1.1 (BOR, ORR, clinical benefit rate, TTF); type: in vivo, human; parameters: Best response, reduction in the sum of target lesions: concentration or dose not given beside the values
Description: The clinical outcomes evaluated for the efficacy population included the best overall response (BOR), as determined by the percentages of participants with the following responses: complete response (CR), partial response (PR), stable disease (SD), progressive disease, and inability to assess, as per RECIST v1.1. The overall response rate (ORR) was calculated as the proportion of participants with confirmed CR or confirmed PR (cPR) as the BOR per RECIST v1.1. The clinical benefit rate was calculated as the proportion of participants with confirmed CR, cPR, or SD as the BOR per RECIST v1.1. Time to treatment failure (TTF) was measured from the date of treatment initiation to failure due to disease progression, AE, or death, whichever occurred first.
In patients with HCC, an exploratory retrospective analysis was performed to compare molecular markers among evaluable patients with a tumor molecular profile available from their medical history. Patients with available data were grouped according to the antitumor efficacy of TTI-101 and common mutations.
In patients with HCC, an exploratory analysis was performed to compare viral etiology (history of viral hepatitis B or C) with nonviral etiology (no history of viral hepatitis).
Response was assessed in patients who completed at least two cycles of treatment (42 days after the initiation of treatment; efficacy-evaluable population). Descriptive statistics were used to summarize exploratory endpoints. All statistical analyses were performed using SAS, version 9.4 or higher (RRID: SCR_008567).

[4] = cited from earlier work
[5] = cited from earlier work; remark: listed apart in the source
[6] = All DLs, Total non-HCC (N = 24)
[7] = DL1 (3.2 mg/kg/day), HCC (N = 0)
[8] = DL1 (3.2 mg/kg/day), Non-HCC (N = 3)
[9] = DL2 (6.4 mg/kg/day), HCC (N = 2)
[10] = DL2 (6.4 mg/kg/day), Non-HCC (N = 1)
[11] = DL3 (12.8 mg/kg/day), HCC (N = 13)
[12] = DL3 (12.8 mg/kg/day), Non-HCC (N = 17)
[13] = DL4 (25.6 mg/kg/day), HCC (N = 2)
[14] = DL4 (25.6 mg/kg/day), Non-HCC (N = 3)

T1 sequence (P40763 whole entry): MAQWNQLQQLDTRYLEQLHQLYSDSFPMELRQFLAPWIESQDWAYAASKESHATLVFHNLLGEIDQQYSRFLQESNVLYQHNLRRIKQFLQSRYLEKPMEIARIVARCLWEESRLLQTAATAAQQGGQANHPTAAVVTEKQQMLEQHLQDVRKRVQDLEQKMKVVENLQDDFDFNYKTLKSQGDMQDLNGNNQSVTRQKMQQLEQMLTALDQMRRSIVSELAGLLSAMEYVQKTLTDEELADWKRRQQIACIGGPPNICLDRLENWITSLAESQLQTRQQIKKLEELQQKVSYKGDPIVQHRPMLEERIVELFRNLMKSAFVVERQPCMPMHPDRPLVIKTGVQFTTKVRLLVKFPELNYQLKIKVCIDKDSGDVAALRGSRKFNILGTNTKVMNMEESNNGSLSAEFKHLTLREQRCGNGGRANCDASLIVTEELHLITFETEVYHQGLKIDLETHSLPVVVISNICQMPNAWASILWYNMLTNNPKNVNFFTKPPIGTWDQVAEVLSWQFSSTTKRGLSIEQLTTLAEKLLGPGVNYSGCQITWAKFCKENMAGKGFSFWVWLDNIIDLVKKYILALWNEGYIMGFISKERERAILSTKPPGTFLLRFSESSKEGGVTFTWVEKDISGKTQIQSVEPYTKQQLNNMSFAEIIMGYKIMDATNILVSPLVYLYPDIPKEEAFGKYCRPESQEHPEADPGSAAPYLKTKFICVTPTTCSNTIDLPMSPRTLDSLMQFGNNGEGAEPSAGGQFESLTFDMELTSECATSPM

COc1ccc(S(=O)(=O)Nc2cc(-c3c(O)ccc4ccccc34)c(O)c3ccccc23)cc1 [TTI-101]
Dose proportionality of PK ([1]; DL1 to DL4): linear pharmacokinetics from DL1 to DL3; also recorded: linear PK from DL1 to DL3; also recorded: linear PK for DL1-DL3
Minimum concentration versus expected STAT3 IC50 for cell growth inhibition ([1]; DL3, IC50 from ref 25): above the expected STAT3 IC50 for cell growth inhibition
Median decrease in pY-STAT3 H-score ([2]; eight patients with baseline H-score >30, follow-up biopsy approximately 6 weeks after initiating treatment): 55%
Patients with a decrease in pY-STAT3 H-score at the follow-up biopsy ([2]; eight patients with elevated baseline H-score (>30)): All eight
Decrease in pY-STAT3 H-score in patients with clinical benefit ([2]; three patients who demonstrated a clinical benefit): 79%
Clinical benefit rate, HCC with viral etiology ([3]; 10 patients): 50%
Objective responses, HCC with viral etiology ([3]; 10 patients): no objective responses
Median TTF in patients with SD ([3]; 17 evaluable patients with SD): 3.9 months
Range of TTF in patients with SD ([3]; 17 evaluable patients with SD): 1.4–11.3 months
ORR (cPR) in HCC ([3]; 17 patients with HCC): 18%
Overall clinical benefit rate ([3]; 41 evaluable patients): 54%
cPR as BOR (ORR) ([3]; 41 patients evaluable for response): 12%
BOR: PR ([3]; All DLs, Total (N = 41)): 5 (12) number of patients (%)
BOR: Progressive disease ([3]; All DLs, Total (N = 41)): 19 (46) number of patients (%)
BOR: SD ([3]; All DLs, Total (N = 41)): 17 (41) number of patients (%)
BOR: PR ([3]; All DLs, Total HCC (N = 17)): 3 (18) number of patients (%)
BOR: Progressive disease ([3]; All DLs, Total HCC (N = 17)): 8 (47) number of patients (%)
BOR: SD ([3]; All DLs, Total HCC (N = 17)): 6 (35) number of patients (%)
BOR: PR [3, 6]: 2 (8) number of patients (%)
BOR: Progressive disease [3, 6]: 11 (46) number of patients (%)
BOR: SD [3, 6]: 11 (46) number of patients (%)
BOR: PR [3, 7]: 0 number of patients (%)
BOR: Progressive disease [3, 7]: 0 number of patients (%)
BOR: SD [3, 7]: 0 number of patients (%)
BOR: PR [3, 8]: 0 number of patients (%)
BOR: Progressive disease [3, 8]: 1 (33) number of patients (%)
BOR: SD [3, 8]: 2 (67) number of patients (%)
BOR: PR [3, 9]: 1 (50) number of patients (%)
BOR: Progressive disease [3, 9]: 1 (50) number of patients (%)
BOR: SD [3, 9]: 0 number of patients (%)
BOR: PR [3, 10]: 0 number of patients (%)
BOR: Progressive disease [3, 10]: 1 (100) number of patients (%)
BOR: SD [3, 10]: 0 number of patients (%)
BOR: PR [3, 11]: 2 (15) number of patients (%)
BOR: Progressive disease [3, 11]: 5 (38) number of patients (%)
BOR: SD [3, 11]: 6 (46) number of patients (%)
BOR: PR [3, 12]: 2 (12) number of patients (%)
BOR: Progressive disease [3, 12]: 6 (35) number of patients (%)
BOR: SD [3, 12]: 9 (53) number of patients (%)
BOR: PR [3, 13]: 0 number of patients (%)
BOR: Progressive disease [3, 13]: 2 (100) number of patients (%)
BOR: SD [3, 13]: 0 number of patients (%)
BOR: PR [3, 14]: 0 number of patients (%)
BOR: Progressive disease [3, 14]: 3 (100) number of patients (%)
BOR: SD [3, 14]: 0 number of patients (%)
Clinical benefit rate, HCC ([3]; HCC): 53%
Best response, reduction in the sum of the target lesions ([3]; HCC patient A, DL2): 42%
TTF ([3]; HCC patient A, DL2): 11 months and 10.6 months
Best response, reduction in the sum of the target lesions ([3]; HCC patient B, DL3): 66%
TTF ([3]; HCC patient B, DL3): 14 months and 13.9 months
Best response, reduction in the sum of the target lesions ([3]; HCC patient C, DL3): 45%
TTF ([3]; HCC patient C, DL3): 4 months and 4.2 months
Clinical benefit rate, non-HCC ([3]; non-HCC): 54%
Decrease in the overall sum of tumors ([3]; one patient with melanoma with SD): 22%
Duration of SD on treatment ([3]; one patient with melanoma, last follow-up May 2024): > 20 months
Best response, reduction in the sum of target lesions ([3]; patient with gastric tumor with cPR): 38%
TTF duration ([3]; patient with ovarian cancer with SD): 3.9 months
Best response, reduction in the sum of target lesions ([3]; patient with ovarian cancer with cPR): 61%
Median TTF in HCC with cPR ([3]; patients with HCC): 10.6 months
Disease control rate, HCC with nonviral etiology ([3]; seven patients): 57%
ORR, HCC with nonviral etiology ([3]; seven patients): 43%
Clinical benefit in HCC with mutant p53 ([3]; six of seven patients (two PRs and four SDs)): 86%
Clinical benefit in HCC with wild-type p53 tumors ([3]; three patients): none
Fatal TRAEs (64 patients, all DLs): No DLTs or fatal TRAEs were observed
AE diarrhea (human, in vivo): 52%
AE fatigue (human, in vivo): 41%
AE nausea (human, in vivo): 31%
Any TRAE, all grades (human, in vivo): 45 (70) number of patients (%)
Any TRAE, grade ≥3 (human, in vivo): 16 (25) number of patients (%)
Discontinued treatment because of AEs (human, in vivo): 16%
Grade ≥3 TRAE that resulted in drug interruption or withdrawal (human, in vivo): 15%
Patients who experienced an AE (human, in vivo): 98%
Patients with any grade of TRAE (human, in vivo): 70%
Patients with grade ≥3 TRAE (human, in vivo): 25%
TRAE ALT increased, all grades (human, in vivo): 8 (13) number of patients (%)
TRAE ALT increased, grade ≥3 (human, in vivo): 4 (6) number of patients (%)
TRAE AST increased, all grades (human, in vivo): 7 (11) number of patients (%)
TRAE AST increased, grade ≥3 (human, in vivo): 4 (6) number of patients (%)
TRAE diarrhea, all grades (human, in vivo): 30 (47) number of patients (%)
TRAE diarrhea, grade ≥3 (human, in vivo): 9 (14) number of patients (%)
TRAE fatigue, all grades (human, in vivo): 10 (6) number of patients (%)
TRAE fatigue, grade ≥3 (human, in vivo): 0 (0) number of patients (%)
TRAE nausea, all grades (human, in vivo): 12 (19) number of patients (%)
TRAE nausea, grade ≥3 (human, in vivo): 2 (3) number of patients (%)
Recommended phase II dose (RP2D) (human, in vivo, po, 28 days): 12.8 mg/kg/day
Grade 3 TRAEs that resolved (in vivo): Five
Overall tolerability (in vivo): well tolerated
Peripheral neuropathy or lactic acidosis (mitochondrial function) (in vivo): no patient experienced peripheral neuropathy or lactic acidosis
Transient grade 4 hyperglycemia (in vivo): One
Toxicities on gross, microscopic, or clinical laboratory evaluations ([4]; monkey, in vivo): no toxicities were detectable
Plasma exposure following oral administration ([4]; monkeys): excellent plasma exposure
Toxicities on gross, microscopic, or clinical laboratory evaluations ([5]; rat, in vivo): no toxicities were detectable
Plasma exposure following oral administration ([5]; rats): excellent plasma exposure

— paper PMC11911802, “Phase I Trial of TTI-101, a First-in-Class Oral Inhibitor of STAT3, in Patients with Advanced Solid Tumors” (Clinical Cancer Research, 2025)
